Organism: Rattus norvegicus
Assay: Open TG-GATES - Regimen: Single
Format: toxicity, organism-based, Sprague-Dawley
Design: regimen Single, gender Male, age 6 weeks
Settings: in vivo, po, route gavage; for APTT / Bas / Eos / Fbg / Hb / Ht / Lym / MCH / MCHC / MCV / Mono / Neu / PT / Plat / RBC / Ret / WBC: tissue Blood; for KIDNEY_L / KIDNEY_R / KIDNEY_TOTAL: tissue Kidney; for LIVER: tissue Liver; for A/G / ALP / ALT / AST / BUN / CRE / Ca / Cl / DBIL / GLC / IP / K / LDH / Na / PL / RALB / TBIL / TC / TG / TP / gamma-GTP: tissue Plasma
[1] = 0 mg/kg, 3 h, dose level Control
[2] = 0 mg/kg, 6 h, dose level Control
[3] = 0 mg/kg, 9 h, dose level Control
[4] = 0 mg/kg, 24 h, dose level Control

## CCOC(=O)[C@H](CCc1ccccc1)N[C@@H](C)C(=O)N1CCC[C@H]1C(=O)O
[1]
  TERMINAL_BW: 219.5 g
  APTT: 16.4 s
  Bas: 0%
  Eos: 1%
  Fbg: 205.6 mg/dL
  Hb: 13.1 g/dL
  Ht: 39.6%
  Lym: 78.2%
  MCH: 21.9 pg
  MCHC: 33%
  MCV: 66.3 fL
  Mono: 8.2%
  Neu: 13%
  PT: 12.1 s
  Plat: 115.4 x10_4/uL
  RBC: 596.8 x10_4/ul
  Ret: 9.2%
  WBC: 96.8 x10_2/uL
  KIDNEY_L: 1 g
  KIDNEY_R: 1 g
  KIDNEY_TOTAL: 2 g
  LIVER: 10.5 g
  A/G: 2.2
  ALP: 725.4 IU/L
  ALT: 37.6 IU/L
  AST: 66.2 IU/L
  BUN: 13.8 mg/dL
  CRE: 0.5 mg/dL
  Ca: 11 mg/dL
  Cl: 105.4 meq/L
  DBIL: 0.008 mg/dL
  GLC: 196.6 mg/dL
  IP: 10.2 mg/dL
  K: 4.8 meq/L
  LDH: 79.2 IU/L
  Na: 140.2 meq/L
  PL: 146 mg/dL
  RALB: 3.7 g/dL
  TBIL: 0.3 mg/dL
  TC: 77 mg/dL
  TG: 70.8 mg/dL
  TP: 5.3 g/dL
  gamma-GTP: 1.4 IU/L
[2]
  TERMINAL_BW: 212.8 g
  APTT: 16.4 s
  Bas: 0%
  Eos: 1%
  Fbg: 205.2 mg/dL
  Hb: 13.2 g/dL
  Ht: 39.9%
  Lym: 76.2%
  MCH: 21.6 pg
  MCHC: 33%
  MCV: 65.4 fL
  Mono: 6.4%
  Neu: 16.6%
  PT: 12.2 s
  Plat: 116.2 x10_4/uL
  RBC: 609.4 x10_4/ul
  Ret: 8.4%
  WBC: 118.4 x10_2/uL
  KIDNEY_L: 0.9 g
  KIDNEY_R: 0.9 g
  KIDNEY_TOTAL: 1.9 g
  LIVER: 9.5 g
  A/G: 2.2
  ALP: 837.6 IU/L
  ALT: 34.6 IU/L
  AST: 65.6 IU/L
  BUN: 9.8 mg/dL
  CRE: 0.5 mg/dL
  Ca: 10.8 mg/dL
  Cl: 105.2 meq/L
  DBIL: 0.022 mg/dL
  GLC: 198.6 mg/dL
  IP: 9.9 mg/dL
  K: 4.7 meq/L
  LDH: 74 IU/L
  Na: 139.4 meq/L
  PL: 130.6 mg/dL
  RALB: 3.7 g/dL
  TBIL: 0.4 mg/dL
  TC: 73 mg/dL
  TG: 46.8 mg/dL
  TP: 5.4 g/dL
  gamma-GTP: 1.6 IU/L
[3]
  TERMINAL_BW: 215 g
  APTT: 16.5 s
  Bas: 0%
  Eos: 1.2%
  Fbg: 215.4 mg/dL
  Hb: 13 g/dL
  Ht: 39.6%
  Lym: 81.4%
  MCH: 21.9 pg
  MCHC: 32.8%
  MCV: 66.8 fL
  Mono: 5%
  Neu: 12.8%
  PT: 11.7 s
  Plat: 112.2 x10_4/uL
  RBC: 593.2 x10_4/ul
  Ret: 8.7%
  WBC: 113.3 x10_2/uL
  KIDNEY_L: 1 g
  KIDNEY_R: 1 g
  KIDNEY_TOTAL: 1.9 g
  LIVER: 9.4 g
  A/G: 2.1
  ALP: 772.2 IU/L
  ALT: 31.2 IU/L
  AST: 60.8 IU/L
  BUN: 13.6 mg/dL
  CRE: 0.4 mg/dL
  Ca: 10.7 mg/dL
  Cl: 106.6 meq/L
  DBIL: 0.022 mg/dL
  GLC: 192.6 mg/dL
  IP: 10.1 mg/dL
  K: 4.8 meq/L
  LDH: 69.8 IU/L
  Na: 139 meq/L
  PL: 133.4 mg/dL
  RALB: 3.8 g/dL
  TBIL: 0.4 mg/dL
  TC: 69.6 mg/dL
  TG: 49.2 mg/dL
  TP: 5.5 g/dL
  gamma-GTP: 1.6 IU/L
[4]
  TERMINAL_BW: 230.9 g
  APTT: 16.3 s
  Bas: 0%
  Eos: 1.4%
  Fbg: 203.8 mg/dL
  Hb: 13.2 g/dL
  Ht: 39.8%
  Lym: 71.6%
  MCH: 21.6 pg
  MCHC: 33.1%
  MCV: 65.3 fL
  Mono: 8.2%
  Neu: 19%
  PT: 11.2 s
  Plat: 117.1 x10_4/uL
  RBC: 609.4 x10_4/ul
  Ret: 8.3%
  WBC: 114 x10_2/uL
  KIDNEY_L: 1.1 g
  KIDNEY_R: 1 g
  KIDNEY_TOTAL: 2.1 g
  LIVER: 11 g
  A/G: 2.4
  ALP: 834.2 IU/L
  ALT: 39.8 IU/L
  AST: 62.6 IU/L
  BUN: 18 mg/dL
  CRE: 0.5 mg/dL
  Ca: 10.9 mg/dL
  Cl: 106.4 meq/L
  DBIL: 0.012 mg/dL
  GLC: 198.8 mg/dL
  IP: 8.5 mg/dL
  K: 5.2 meq/L
  LDH: 86.4 IU/L
  Na: 141 meq/L
  PL: 155 mg/dL
  RALB: 3.9 g/dL
  TBIL: 0.4 mg/dL
  TC: 80 mg/dL
  TG: 84.6 mg/dL
  TP: 5.5 g/dL
  gamma-GTP: 1.2 IU/L
60 mg/kg, 3 h, dose level Low
  TERMINAL_BW: 218.9 g
  APTT: 15.9 s
  Bas: 0%
  Eos: 1%
  Fbg: 216 mg/dL
  Hb: 13.2 g/dL
  Ht: 40.3%
  Lym: 75.6%
  MCH: 21.3 pg
  MCHC: 32.8%
  MCV: 64.7 fL
  Mono: 9.4%
  Neu: 14%
  PT: 12 s
  Plat: 113.1 x10_4/uL
  RBC: 622.2 x10_4/ul
  Ret: 8.4%
  WBC: 113.3 x10_2/uL
  KIDNEY_L: 0.9 g
  KIDNEY_R: 0.9 g
  KIDNEY_TOTAL: 1.9 g
  LIVER: 10.3 g
  A/G: 1.9
  ALP: 851.2 IU/L
  ALT: 38.6 IU/L
  AST: 65.6 IU/L
  BUN: 18.2 mg/dL
  CRE: 0.5 mg/dL
  Ca: 11 mg/dL
  Cl: 106 meq/L
  DBIL: 0.018 mg/dL
  GLC: 203.8 mg/dL
  IP: 9.8 mg/dL
  K: 5.3 meq/L
  LDH: 85 IU/L
  Na: 138.8 meq/L
  PL: 142.2 mg/dL
  RALB: 3.4 g/dL
  TBIL: 0.3 mg/dL
  TC: 84 mg/dL
  TG: 52.2 mg/dL
  TP: 5.3 g/dL
  gamma-GTP: 1.8 IU/L
60 mg/kg, 6 h, dose level Low
  TERMINAL_BW: 221.6 g
  APTT: 15.7 s
  Bas: 0%
  Eos: 1%
  Fbg: 200 mg/dL
  Hb: 13.1 g/dL
  Ht: 39.2%
  Lym: 79.8%
  MCH: 21.7 pg
  MCHC: 33.3%
  MCV: 65.2 fL
  Mono: 5.2%
  Neu: 14.6%
  PT: 12 s
  Plat: 110.6 x10_4/uL
  RBC: 602.6 x10_4/ul
  Ret: 9.2%
  WBC: 122.1 x10_2/uL
  KIDNEY_L: 1 g
  KIDNEY_R: 1 g
  KIDNEY_TOTAL: 2 g
  LIVER: 9.9 g
  A/G: 2.2
  ALP: 728.2 IU/L
  ALT: 36.2 IU/L
  AST: 60.4 IU/L
  BUN: 22 mg/dL
  CRE: 0.5 mg/dL
  Ca: 11.1 mg/dL
  Cl: 104.8 meq/L
  DBIL: 0.054 mg/dL
  GLC: 196 mg/dL
  IP: 10.9 mg/dL
  K: 4.9 meq/L
  LDH: 85.2 IU/L
  Na: 139.4 meq/L
  PL: 136 mg/dL
  RALB: 3.6 g/dL
  TBIL: 0.5 mg/dL
  TC: 78.2 mg/dL
  TG: 44.4 mg/dL
  TP: 5.3 g/dL
  gamma-GTP: 1.4 IU/L
60 mg/kg, 9 h, dose level Low
  TERMINAL_BW: 216 g
  APTT: 16.1 s
  Bas: 0%
  Eos: 1.2%
  Fbg: 195 mg/dL
  Hb: 12.7 g/dL
  Ht: 39.1%
  Lym: 77%
  MCH: 21.6 pg
  MCHC: 32.6%
  MCV: 66.3 fL
  Mono: 4.4%
  Neu: 17%
  PT: 11.7 s
  Plat: 111.5 x10_4/uL
  RBC: 590 x10_4/ul
  Ret: 8.6%
  WBC: 87.4 x10_2/uL
  KIDNEY_L: 1 g
  KIDNEY_R: 1 g
  KIDNEY_TOTAL: 2 g
  LIVER: 9.2 g
  A/G: 1.9
  ALP: 839.6 IU/L
  ALT: 33.2 IU/L
  AST: 69 IU/L
  BUN: 20.2 mg/dL
  CRE: 0.4 mg/dL
  Ca: 10.6 mg/dL
  Cl: 107 meq/L
  DBIL: 0.02 mg/dL
  GLC: 193.4 mg/dL
  IP: 11 mg/dL
  K: 5.1 meq/L
  LDH: 89.4 IU/L
  Na: 138.4 meq/L
  PL: 122.2 mg/dL
  RALB: 3.5 g/dL
  TBIL: 0.4 mg/dL
  TC: 66.8 mg/dL
  TG: 57 mg/dL
  TP: 5.3 g/dL
  gamma-GTP: 1.6 IU/L
60 mg/kg, 24 h, dose level Low
  TERMINAL_BW: 228.5 g
  APTT: 16.3 s
  Bas: 0%
  Eos: 1.4%
  Fbg: 220 mg/dL
  Hb: 12.9 g/dL
  Ht: 39.1%
  Lym: 79.6%
  MCH: 21.5 pg
  MCHC: 33.2%
  MCV: 65 fL
  Mono: 5.4%
  Neu: 14%
  PT: 11 s
  Plat: 114.8 x10_4/uL
  RBC: 602.4 x10_4/ul
  Ret: 8.9%
  WBC: 88.3 x10_2/uL
  KIDNEY_L: 1 g
  KIDNEY_R: 1 g
  KIDNEY_TOTAL: 2.1 g
  LIVER: 11.3 g
  A/G: 2.1
  ALP: 986.4 IU/L
  ALT: 39.2 IU/L
  AST: 61.4 IU/L
  BUN: 16.8 mg/dL
  CRE: 0.5 mg/dL
  Ca: 11.1 mg/dL
  Cl: 104.6 meq/L
  DBIL: 0.006 mg/dL
  GLC: 202.4 mg/dL
  IP: 8.6 mg/dL
  K: 5.4 meq/L
  LDH: 110.4 IU/L
  Na: 138.6 meq/L
  PL: 157.2 mg/dL
  RALB: 3.9 g/dL
  TBIL: 0.4 mg/dL
  TC: 89.4 mg/dL
  TG: 94.6 mg/dL
  TP: 5.8 g/dL
  gamma-GTP: 1.8 IU/L
